# Measured values as given in patent US6121323A, “Bishydroxyureas” (3M Innovative Properties Company, priority 1997, dated 2000).
# Target: T1, 5-lipoxygenase (Homo sapiens, UniProt P09917)
# T1 construct: endogenous in cells; host or cells: leukocytes from whole human blood (EDTA, dextran sedimentation, hypotonic lysis)
# T1 sequence (P09917 1-674): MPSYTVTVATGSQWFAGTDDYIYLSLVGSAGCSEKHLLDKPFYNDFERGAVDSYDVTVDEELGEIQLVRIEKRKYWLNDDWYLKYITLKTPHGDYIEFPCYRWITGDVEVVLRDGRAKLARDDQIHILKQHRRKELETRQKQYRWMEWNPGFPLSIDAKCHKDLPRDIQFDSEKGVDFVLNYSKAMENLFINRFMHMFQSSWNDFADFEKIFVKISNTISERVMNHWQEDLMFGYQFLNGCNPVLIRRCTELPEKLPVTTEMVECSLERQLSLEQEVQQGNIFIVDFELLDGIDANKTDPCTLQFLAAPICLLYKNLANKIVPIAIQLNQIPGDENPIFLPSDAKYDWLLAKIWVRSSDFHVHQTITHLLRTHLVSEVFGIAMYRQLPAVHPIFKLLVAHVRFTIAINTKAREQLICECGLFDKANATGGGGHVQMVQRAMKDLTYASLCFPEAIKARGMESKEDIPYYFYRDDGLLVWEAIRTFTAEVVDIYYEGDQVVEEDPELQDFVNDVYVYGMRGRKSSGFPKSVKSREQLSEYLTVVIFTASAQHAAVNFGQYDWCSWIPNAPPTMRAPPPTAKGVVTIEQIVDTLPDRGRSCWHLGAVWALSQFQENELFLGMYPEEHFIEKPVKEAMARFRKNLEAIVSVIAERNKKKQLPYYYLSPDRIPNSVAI
# Test: 5-Lipoxygenase inhibition in human leukocytes (LTC4 by radioimmunoassay)
# Assay type: cell-based
# Settings: A23187 stimulated, LTC4 readout, read-out: IC50 (concentration producing 50% leukotriene biosynthesis inhibition)
# Procedure: 5-LIPOXYGENASE INHIBITION IN HUMAN LEUKOCYTES
# The test method described below measures the ability of compounds of the invention to inhibit 5-lipoxygenase activity in human leukocytes.
# Whole human blood is collected by venipuncture into EDTA (1.4 mL of 0.25M per 60 mL of whole blood). The red blood cells are sedimented with a 6% dextran/0.9% sodium chloride solution at a ratio of 25 mL whole blood to 15 mL dextran solution. The blood/dextran combination is mixed by inversion and the red blood cells are allowed to settle out for 45 minutes at ambient temperature. The plasma/dextran supernatant is removed then centrifuged at ambient temperature at 3000 rpm for 10 minutes. The plasma/dextran supernatant is removed and the cells are resuspended in 10 mL of the plasma/dextran solution. The cell suspension is combined with 20 mL of water, mixed for 1.5 minutes then immediately combined with 10 mL of 3.6% sodium chloride, mixed and centrifuged at ambient temperature at 3000 rpm for 10 minutes. The pellet is washed with 40 mL of Tris buffer (5.55 mM dextrose, 15.36 mM Tris base, 136.9 mM sodium chloride with pH 7.3-7.4) then centrifuged at 3000 rpm for 10 minutes. The pellet is then resuspended into Tris buffer containing 1 mM calcium chloride to provide approximately 1.0×10^7 cells/mL.
# Compounds are dissolved in dimethyl sulfoxide. Compounds are tested at concentrations of 100, 33, 11, 3.7, 1.2 and 0.41 μM. Each concentration is tested in duplicate.
# A 15 μL portion of Tris buffer containing 1 mM calcium chloride is added to each well of a 96 well microtiter plate. A 1 μL portion of drug solution or vehicle (dimethyl sulfoxide) is added to each well followed by the addition of a 75 μL portion of the cell suspension. The plates are gently mixed then allowed to stand at ambient temperature for 10 minutes. A 10 μL portion of 30 μM A23187 Calcium Ionophore (prepared by dissolving the ionophore in DMSO and then diluting 1:80 into the Tris buffer) is added to each well except the wells that contain the blanks. The blank wells measure the level of LTC4 production in the absence of A23187. The plates are gently mixed then incubated at 37° C. for 10 minutes.
# Following incubation the plates are centrifuged at 2000 rpm for 1.5 minutes and the supernatant is removed as quickly as possible to stop the reaction. The supernatants are frozen at -20° C. until they are assayed.
# The supernatants are assayed for the presence of Leukotriene C4 by radioimmunoassay which is performed according to the manufacturer's instructions (Advanced Magnetics; Cambridge, Mass.). Inhibition of leukotriene biosynthesis is calculated as the ratio of the amount of LTC4 formed in the presence (LTC4 +cpd) and absence (LTC4 no cpd) of compound according to the following equation. [formula] IC50 values (concentrations of compound producing 50% leukotriene biosynthesis inhibition) are calculated by linear regression analysis of percentage inhibition versus log compound concentration plots.
row,IC50 [µM],Structure (SMILES)
1,65,"CCC(CC)N(O)C(=O)NC(C)(C)c1cccc(C(C)(C)NC(=O)N(O)C(CC)CC)c1 [Example 13, 1,1'-(m-Phenylene)bis(1-methyl-1-(3-hydroxy-3-(1-ethylpropyl)ureido)ethane)]"
2,0.1,"CCC(CC)N(O)C(=O)Nc1ccc(Oc2ccc(NC(=O)N(O)C(CC)CC)cc2)cc1 [Example 14, 4,4'-Oxybis(1-hydroxy-1-(1-ethylpropyl)-3-phenylurea)]"
3,2.1,"CCC(CC)N(O)C(=O)Nc1ccc(NC(=O)N(O)C(CC)CC)cc1 [Example 15, 1,1'-(p-Phenylene)bis(3-hydroxy-3-(1-ethylpropyl)urea)]"
4,58.6,"CCC(CC)N(O)C(=O)Nc1ccc(C)c(NC(=O)N(O)C(CC)CC)c1 [Example 16, 1,1'-(4-Methyl-m-phenylene)bis(3-hydroxy-3-(1-ethylpropyl)urea)]"
5,12,"CCC(CC)N(O)C(=O)NCCCC(C)CNC(=O)N(O)C(CC)CC (stereo not shown) [Example 17, 1,1'-(2-Methylpentamethylene)bis(3-hydroxy-3-(1-ethylpropyl)urea)]"
6,0.33,"CCC(CC)N(O)C(=O)NCCCCCCCCNC(=O)N(O)C(CC)CC [Example 18, 1,1'-Octamethylenebis(3-hydroxy-3-(1-ethylpropyl)urea)]"
7,0.11,"CCC(CC)N(O)C(=O)Nc1ccc(Cc2ccc(NC(=O)N(O)C(CC)CC)c(Cl)c2)cc1Cl [Example 19, 4,4'-Methylenebis(1-hydroxy-1-(1-ethylpropyl)-3-(2-chlorophenyl)urea)]"
